Results reported in patent US12617779B2, “Self degradation-type CDK9 inhibitor prodrug and liposome encapsulating same” (Sumitomo Pharma Co., Ltd., priority 2021, dated 2026).

Experiments:
[1] = Evaluation of conversion rate to active form in human plasma (Experimental Example 3); format: in vitro ADME; settings: human, 0.2 μmol/L
Method: (§1) For Example 1, Example 2, Example 3, Example 4, Example 5, Example 6, Comparative Example 3, Comparative Example 4, Comparative Example 6, Comparative Example 7, Comparative Example 8, Comparative Example 9, Comparative Example 10 and Comparative Example 12, the attrition rate of the test compound and the conversion rate of the test compound to Alvocidib in human plasma and BALB/c mouse plasma were calculated by the following method.
(§2) The test compound was added to human plasma or BALB/c mouse plasma at a concentration of 0.2 μmol/L, and incubated at 37° C. The peak areas of the test compound and Alvocidib in the sample were determined by LC-MS/MS after 0, 30 and 60 minutes for Example 1, Example 2, Example 3, Example 4, Example 5 and Example 6, and after 0, 60 and 120 minutes for Comparative Example 3, Comparative Example 4, Comparative Example 6, Comparative Example 7, Comparative Example 8, Comparative Example 9, Comparative Example 10 and Comparative Example 12, and the attrition rate of the test compound and the conversion rate of the test compound to Alvocidib were calculated by the following formula. Attrition rate of test compound (%):(peak area of test compound in sample/peak area of test compound in sample after 0 minute)×100 Conversion rate to Alvocidib (%):(peak area of Alvocidib in sample/peak area of Alvocidib in reaction solution containing 0.2 μmol/L Alvocidib)×100
(§3) The measurement conditions for LC-MS/MS are as follows. • HPLC: Prominence system (Shimadzu Corporation) • MS/MS: • Example 1, Example 2, Example 3, Example 4, Example 5, Example 6, Comparative Example 8 (mouse), Comparative Example 10 (mouse) and Comparative Example 12 (mouse) • QTRAP5500 (SCIEX) • Comparative Example 6, Comparative Example 7, Comparative Example 8 (human), Comparative Example 9, Comparative Example 10 (human) and Comparative Example 12 (human) • 4000 QTRAP (SCIEX) • column: • other than Example 3 and Example 4 • Cadenza CD-C18, 3 μm, 50×2 mm (Imtakt Corporation) • Example 3 and Example 4 • Kinetex C8, 2.6 μm, 50×2.1 mm (Phenomenex) • column temperature: 40° C. • mobile phase: • A: water containing 0.1% formic acid • B: acetonitrile containing 0.1% formic acid • A/B (min): • Example 1, Example 2, Example 5, Example 6, Comparative Example 8 (mouse), Comparative Example 10 (mouse) and Comparative Example 12 (mouse) • 90/10(0)→40/60(5.0)→10/90(5.1)→10/90(6.5)→90/10(6.6)→90/10(8.0) • Example 3 and Example 4 • 86/14(0)→86/14(3.5)→10/90(5.5)→10/90(6.5)→86/14(6.6)→86/14(9.5) • Comparative Example 6, Comparative Example 7, Comparative Example 8 (human), Comparative Example 9, Comparative Example 10 (human) and Comparative Example 12 (human) • 90/10(0)→10/90(2.5)→10/90(3.5)→90/10(3.6)→90/10(5.0) • flow rate: 0.4 mL/min • detection: ESI (positive mode) • injection: 1 to 5 μL

[2] = Evaluation of conversion rate to active form in buffer solution (Experimental Example 1); format: physicochemical
Summary of the method: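 Stability across pH: 25 umol/L, 37° C, 50 mM citrate/phosphate, pH 5.0–7.4. Sampling at 0, 0.5, 1, 2, 3 h; HPLC determined loss of compound and Alvocidib generated.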

[3] = Evaluation of conversion rate to active form in BALB/c mouse plasma (Experimental Example 3); format: in vitro ADME; settings: BALB/c, mouse, 0.2 μmol/L
Method: as §1, §2, §3

SMILES: CCNC(=O)O[C@@H]1CN(C)CC[C@@H]1c1c(O)cc(O)c2c(=O)cc(-c3ccccc3Cl)oc12 [Comparative Example 4, reference compound]
- Production rate (%) of Alvocidib ([1]; 0 min): 2%
- Residual rate (%) of test compound ([1]; 0 min): 100%
- Production rate (%) of Alvocidib ([1]; 60 min): 3%
- Residual rate (%) of test compound ([1]; 60 min): 101%
- Production rate (%) of Alvocidib ([1]; 120 min): 3%
- Residual rate (%) of test compound ([1]; 120 min): 134%
- Production rate of Alvocidib ([2]; pH5.0, 0 hr): 1.7%
- Residual rate ([2]; pH5.0, 0 hr): 97.7%
- Production rate of Alvocidib ([2]; pH5.0, 0.5 hr): 1.8%
- Residual rate ([2]; pH5.0, 0.5 hr): 97.8%
- Production rate of Alvocidib ([2]; pH5.0, 1 hr): 1.7%
- Residual rate ([2]; pH5.0, 1 hr): 97.8%
- Production rate of Alvocidib ([2]; pH5.0, 2 hr): 1.8%
- Residual rate ([2]; pH5.0, 2 hr): 97.7%
- Production rate of Alvocidib ([2]; pH5.0, 3 hr): 1.8%
- Residual rate ([2]; pH5.0, 3 hr): 97.7%
- Production rate of Alvocidib ([2]; pH5.5, 0 hr): 1.8%
- Residual rate ([2]; pH5.5, 0 hr): 97.8%
- Production rate of Alvocidib ([2]; pH5.5, 0.5 hr): 1.8%
- Residual rate ([2]; pH5.5, 0.5 hr): 97.6%
- Production rate of Alvocidib ([2]; pH5.5, 1 hr): 1.8%
- Residual rate ([2]; pH5.5, 1 hr): 97.7%
- Production rate of Alvocidib ([2]; pH5.5, 2 hr): 1.8%
- Residual rate ([2]; pH5.5, 2 hr): 97.8%
- Production rate of Alvocidib ([2]; pH5.5, 3 hr): 1.8%
- Residual rate ([2]; pH5.5, 3 hr): 97.6%
- Production rate of Alvocidib ([2]; pH6.0, 0 hr): 1.8%
- Residual rate ([2]; pH6.0, 0 hr): 97.8%
- Production rate of Alvocidib ([2]; pH6.0, 0.5 hr): 1.8%
- Residual rate ([2]; pH6.0, 0.5 hr): 97.7%
- Production rate of Alvocidib ([2]; pH6.0, 1 hr): 1.7%
- Residual rate ([2]; pH6.0, 1 hr): 97.7%
- Production rate of Alvocidib ([2]; pH6.0, 2 hr): 1.8%
- Residual rate ([2]; pH6.0, 2 hr): 97.7%
- Production rate of Alvocidib ([2]; pH6.0, 3 hr): 1.8%
- Residual rate ([2]; pH6.0, 3 hr): 97.7%
- Production rate of Alvocidib ([2]; pH6.5, 0 hr): 1.8%
- Residual rate ([2]; pH6.5, 0 hr): 97.7%
- Production rate of Alvocidib ([2]; pH6.5, 0.5 hr): 1.8%
- Residual rate ([2]; pH6.5, 0.5 hr): 97.6%
- Production rate of Alvocidib ([2]; pH6.5, 1 hr): 1.8%
- Residual rate ([2]; pH6.5, 1 hr): 97.7%
- Production rate of Alvocidib ([2]; pH6.5, 2 hr): 1.8%
- Residual rate ([2]; pH6.5, 2 hr): 97.8%
- Production rate of Alvocidib ([2]; pH6.5, 3 hr): 1.8%
- Residual rate ([2]; pH6.5, 3 hr): 97.7%
- Production rate of Alvocidib ([2]; pH7.0, 0 hr): 1.8%
- Residual rate ([2]; pH7.0, 0 hr): 97.7%
- Production rate of Alvocidib ([2]; pH7.0, 0.5 hr): 1.8%
- Residual rate ([2]; pH7.0, 0.5 hr): 97.7%
- Production rate of Alvocidib ([2]; pH7.0, 1 hr): 1.8%
- Residual rate ([2]; pH7.0, 1 hr): 97.6%
- Production rate of Alvocidib ([2]; pH7.0, 2 hr): 1.8%
- Residual rate ([2]; pH7.0, 2 hr): 97.6%
- Production rate of Alvocidib ([2]; pH7.0, 3 hr): 1.8%
- Residual rate ([2]; pH7.0, 3 hr): 97.7%
- Production rate of Alvocidib ([2]; pH7.4, 0 hr): 1.8%
- Residual rate ([2]; pH7.4, 0 hr): 97.7%
- Conversion to Alvocidib at pH 7.4 ([2]; pH 7.4, 37° C., up to 3 hours): slowly converted to Alvocidib
- Production rate of Alvocidib ([2]; pH7.4, 0.5 hr): 1.8%
- Residual rate ([2]; pH7.4, 0.5 hr): 97.6%
- Production rate of Alvocidib ([2]; pH7.4, 1 hr): 1.7%
- Residual rate ([2]; pH7.4, 1 hr): 97.7%
- Production rate of Alvocidib ([2]; pH7.4, 2 hr): 1.8%
- Residual rate ([2]; pH7.4, 2 hr): 97.7%
- Production rate of Alvocidib ([2]; pH7.4, 3 hr): 1.8%
- Residual rate ([2]; pH7.4, 3 hr): 97.8%
- Production rate (%) of Alvocidib ([3]; 0 min): 2%
- Residual rate (%) of test compound ([3]; 0 min): 100%
- Production rate (%) of Alvocidib ([3]; 60 min): 3%
- Residual rate (%) of test compound ([3]; 60 min): 94%
- Production rate (%) of Alvocidib ([3]; 120 min): 3%
- Residual rate (%) of test compound ([3]; 120 min): 92%
